Laboratory results: the NIST ThermoML archive (doi:10.1016/j.jct.2016.08.005)

Settings: Liquid, Vibrating tube method

c1ccsc1 [thiophene]
mass density [kg/m3]
Settings | 283.15 K | 288.15 K | 293.15 K | 298.15 K | 303.15 K | 308.15 K
100 kPa | 1076.4 | 1070.54 | 1064.59 | 1058.65 | 1052.71 | 1046.7
2000 kPa | 1077.94 | 1072.11 | 1066.21 | 1060.32 | 1054.43 | 1048.48
5000 kPa | 1080.27 | 1074.53 | 1068.67 | 1062.91 | 1057.07 | 1051.21
7000 kPa | 1081.81 | 1076.12 | 1070.33 | 1064.57 | 1058.82 | 1052.99
10000 kPa | 1084.09 | 1078.46 | 1072.75 | 1067.05 | 1061.36 | 1055.61
15000 kPa | 1087.78 | 1082.24 | 1076.63 | 1071.07 | 1065.48 | 1059.87
20000 kPa | 1091.37 | 1085.9 | 1080.39 | 1074.94 | 1069.46 | 1063.97
25000 kPa | 1094.82 | 1089.45 | 1084.05 | 1078.69 | 1073.3 | 1067.92
30000 kPa | 1098.18 | 1092.91 | 1087.58 | 1082.3 | 1077.03 | 1071.73
35000 kPa | 1101.44 | 1096.24 | 1091.01 | 1085.81 | 1080.62 | 1075.4
40000 kPa | 1104.61 | 1099.5 | 1094.34 | 1089.21 | 1084.1 | 1078.99
45000 kPa | 1107.7 | 1102.65 | 1097.57 | 1092.53 | 1087.49 | 1082.45
50000 kPa | 1110.71 | 1105.72 | 1100.7 | 1095.73 | 1090.79 | 1085.8
55000 kPa | 1113.62 | 1108.7 | 1103.77 | 1098.86 | 1093.96 | 1089.07
60000 kPa | 1116.47 | 1111.61 | 1106.72 | 1101.89 | 1097.06 | 1092.23
65000 kPa | 1119.27 | 1114.44 | 1109.63 | 1104.85 | 1100.09 | 1095.31
